The source of these data is article PMC9127750, “Structure-based design of CDC42 effector interaction inhibitors for the treatment of cancer” (Cell reports, 2022).

For orientation: pIC50 means the IC50 on a negative log10 scale, so that one unit is a factor of ten. In general, solubility (kinetic) refers to the concentration staying in solution when a stock, usually in DMSO, is diluted into the medium.

SMILES strings stand for the structures. pIC50: −log10 of the molar value. Read-outs that look alike come from different tables or passages of the source. Some results are limits rather than exact numbers.

Series [1] deals with A375. The series is described as follows: cells. Particulars: Homo sapiens. Put shortly:
(§1)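 CellTiterGlo readout of viable cells after overnight compound exposure at 37°C; cells in own media.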

Series [2] has as its system BT-20. The series is described as follows: cells. The note with it: Homo sapiens, BT-20, read-out: IC50 ARN22089. Put shortly:
as §1

Series [3] has as its system COV434. Put plainly: cells. Particulars: COV434, read-out: IC50 ARN22089. An outline of the steps:
as §1

Series [4] deals with Caki-1. Put plainly: cells. The note with it: Homo sapiens, CAKI-1, read-out: IC50 ARN22089. An outline of the steps: as §1
The subject of series [5] is DLD-1. The series is described as follows: cells. Particulars: Homo sapiens, DLD-1, read-out: IC50 ARN22089. An outline of the steps:
as §1

In series [6] the test system is EPLC-272H. The series is described as follows: cells. The note with it: Homo sapiens, read-out: IC50 ARN22089. An outline of the steps:
as §1

The test system of series [7] is HCC827. Put plainly: cells. The note with it: Homo sapiens, HCC827, read-out: IC50 ARN22089. An outline of the steps: as §1
Series [8] deals with HCT-15. Put plainly: cells. The note with it: Homo sapiens, HCT-15, read-out: IC50 ARN22089. An outline of the steps: as §1
For series [9], the system named is HT-29. Put plainly: cells. Particulars: Homo sapiens, HT-29, read-out: IC50 ARN22089. An outline of the steps:
as §1

Series [10] concerns Hep3B2.1-7. Put plainly: cells. Particulars: read-out: IC50 ARN22089. An outline of the steps: as §1
Series [11] relates to LN229. Put plainly: cells. Particulars: Homo sapiens, LN-229, read-out: IC50 ARN22089. Put shortly: as §1
Series [12] concerns LOVO. Put plainly: cells. Particulars: Homo sapiens, read-out: IC50 ARN22089. An outline of the steps: as §1
In series [13] the test system is LnCap. The series is described as follows: cells. The note with it: Homo sapiens, read-out: IC50 ARN22089. An outline of the steps:
as §1

Series [14] deals with MDAMB435. Put plainly: cells. The note with it: Homo sapiens, MDA-MB-435, read-out: IC50 ARN22089. Put shortly: as §1
Series [15] concerns NCI-N87. Put plainly: cells. The note with it: Homo sapiens, NCI-N87, read-out: IC50 ARN22089. An outline of the steps: as §1
Series [16] has as its system OVK18. Put plainly: cells. The note with it: OVK18, read-out: IC50 ARN22089. An outline of the steps: as §1
Series [17] relates to SW620. The series is described as follows: cells. The note with it: Homo sapiens, SW-620, read-out: IC50 ARN22089. An outline of the steps: as §1
Series [18] relates to SW948. The series is described as follows: cells. The note with it: Homo sapiens, SW948, read-out: IC50 ARN22089. Put shortly:
as §1

Series [19] can be described thus: physchem. Particulars: pH 7.4. Here is the method:
The UPLC/MS analyses were performed on a Waters ACQUITY UPLC/MS system consisting of a Single Quadrupole Detector (SQD) Mass Spectrometer (MS) equipped with an Electrospray Ionization (ESI) interface and a Photodiode Array Detector (PDA). The PDA range was 210-400 nm. ESI in positive mode was used in the mass scan range 100-650 Da.

Series [20] has as its system ERK phosphorylation. Put plainly: Immunoblotting pERK. The class given is cell-based, Human. The note with it: A375 and WM3248; 10 and 20 μM at 6 h, 5 μM at 24 h. As to the method: (§2) […]. ImageJ was used to perform densitometry.
A375 cells were maintained in DMEM (plus high glucose, L-glutamine, sodium pyruvate) supplemented with 10% FBS, 1% MEM NEAA and 1% antibiotic-antimycotic. WM3248 cells were maintained in 80% MCDB153 pH 7.30, 20% Leibovitz’s L-15, 2% FBS, 5 ug/mL insulin (bovine), 1.68 mM CaCl2, and 1% antibiotic-antimycotic. All cells were kept in 5% CO2 incubator at 37°C.

Series [21] deals with RELB protein level. The series is described as follows: Immunoblotting RELB. The class given is cell-based, Human. The note with it: WM3248, 24 h, versus untreated cells.
From the text: as §2
(In general: Immunoblotting shows a protein as a band on a membrane.)

Series [22] deals with panel of 47 classical pharmacological targets. Put plainly: Off-target panel (agonist/antagonist). The note with it: concentrations up to 25 μM.
In series [23] the test system is PDX tumors. Put plainly: Tumor necrosis histology (H&E). Particulars: treatment for 2 weeks, tumors that responded. The class given is in vivo, NSG mice. As to the method: Once tumors reached endpoint, various tissues were collected including the tumors, liver, and lymph nodes. All organs were fixed overnight in 10% formalin prior to washing and an ethanol dehydration series. Fixed tissue was sent to the Experimental Tissue Resource (UCI Department of Pathology) for embedding and preliminary staining by H&E and S100. The percentage of tumor necrosis was determined from H&E sections by a pathologist blinded to treatment groups. Statistical test on necrosis scores was completed using a student’s t-test in R (version 3.5.3).

As for `CN(C)c1cccc(Nc2cc(-c3ccccc3)nc(C3CCNCC3)n2)c1` [ARN22089, N1,N1-dimethyl-N3-(6-phenyl-2-(piperidin-4-yl)pyrimidin-4-yl)benzene-1,3-diamine], the negative logarithm of the IC50 (pIC50) in series [1] (A-375, read-out: IC50 A375) is 5.31; in series [1] (A-375, read-out: IC50 ARN22089), 5.35; in series [2], 4.54; in series [3], 5.26; in series [4] it was 4.96; in [5] it was 5.30. The negative logarithm of the IC50 (pIC50) in series [6] was 4.80; in [7] it was 4.96; in series [8] it was 5.06; in series [9], 5.46; in series [10], 5.44; in series [11], 5.11. Besides, the pIC50 is 5.11 in series [12]; 4.85 in series [13]; 5.00 in series [14]; 5.24 in series [15]; 5.12 in series [16]; 5.23 in series [17]. The pIC50 in [18] is 5.08. Besides, the kinetic solubility at 24 h in [19] was above 250 µM. Also, in series [20], the “ERK phosphorylation (immunoblot)” value is “inhibited ERK phosphorylation”. The “RELB protein level (immunoblot)” value in [21] was “increased”. For the same compound, the “off-target effects as an agonist or an antagonist” value in series [22] was “no significant off-target effects”. For the same compound, the “tumors with increased tumor necrosis” value in series [23] is “three of the four tumors”.
